Experimental data published in US11446298B2, “Pyrimidine derivatives” (Idorsia Pharmaceuticals Ltd, priority 2017, dated 2022).

Tests used:
Format in all cases: cell-based
PTGER2 (EP2) = target: T1, PTGER2 (EP2) (Homo sapiens, UniProt P43116); assay: hEP2 b-Arrestin Assay (PathHunter HEK 293 PTGER2 b-arrestin cells, PGE2 5 μM); conditions: antagonistic activity, beta-arrestin assay, HEK 293 PTGER2 cells, PGE2 5 μM (EC80); read-out: hEP2 b-arr IC50
T1 construct: host or cells: HEK 293 (PathHunter, stably transfected)
In short: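 PathHunter enzyme-fragment complementation in HEK 293 cells: compounds (10 μM-2 nM or 1 μM-0.2 nM) pre-incubated 15 min at 37 °C, then 5 μM PGE2 (EC80) for 120 min at 37 °C. Chemiluminescence read after 1 h detection; IC50 from duplicate dose-response fits, means of repeats.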

PTGER4 (EP4) = target: T2, PTGER4 (EP4) (Homo sapiens, UniProt P35408); assay: hEP4 b-Arrestin Assay (PathHunter HEK 293 PTGER4 b-arrestin cells, PGE2 20 nM); conditions: antagonistic activity, beta-arrestin assay, HEK 293 PTGER4 cells, PGE2 20 nM (EC80); read-out: hEP4 b-arr IC50
T2 construct: host or cells: HEK 293 (PathHunter, stably transfected)
In short: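 PathHunter HEK 293 EP4 b-arrestin enzyme-complementation cells preincubated 15 min at 37° C with compound (10 μM-2 nM or 1 μM-0.2 nM), then stimulated 120 min with 20 nM PGE2 (EC80). Chemiluminescence read; IC50 from duplicate % activity vs DMSO, one-site fit, averaged over repeats.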

EP2 = target: T3, EP2 (Homo sapiens, UniProt P43116); assay: hEP2 cAMP Assay (SF295 glioblastoma cells, HTRF cAMP, PGE2 75 nM); conditions: antagonistic activity, PGE2 75 nM (EC80)
T3 construct: SF295 glioblastoma cells express high endogenous EP2 and no EP4; host or cells: SF295 glioblastoma cells
In short: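 IC50 values derive from duplicate-point curves of percent cAMP relative to DMSO, read by HTRF (665/620 nm) against a cAMP calibrator. Compounds (30 μM to 0.01 nM ranges) were given 45 min at room temperature before 30 min with 75 nM PGE2, in EP2-only SF295 cells with 2 mM IBMX.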

EP4 = target: T4, EP4 (Homo sapiens, UniProt P35408); assay: hEP4 cAMP Assay (BT549 breast cancer cells, HTRF cAMP, PGE2 6 nM); conditions: antagonistic activity, PGE2 6 nM (EC80)
T4 construct: BT549 breast cancer cells, express high endogenous EP4 levels and very low EP2 levels; host or cells: BT549 breast cancer cells
In short: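 BT549 cells (endogenous EP4, very low EP2) in HBSS/20 mM HEPES/0.2% BSA/2 mM IBMX, pre-incubated 45 min RT with compound, then stimulated 30 min RT with PGE2 6 nM (EC80). cAMP read by HTRF competitive immunoassay (665/620 nm), converted via calibrator to % of DMSO control; IC50 from duplicate dose-response curves.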

T4 sequence (P35408 whole entry): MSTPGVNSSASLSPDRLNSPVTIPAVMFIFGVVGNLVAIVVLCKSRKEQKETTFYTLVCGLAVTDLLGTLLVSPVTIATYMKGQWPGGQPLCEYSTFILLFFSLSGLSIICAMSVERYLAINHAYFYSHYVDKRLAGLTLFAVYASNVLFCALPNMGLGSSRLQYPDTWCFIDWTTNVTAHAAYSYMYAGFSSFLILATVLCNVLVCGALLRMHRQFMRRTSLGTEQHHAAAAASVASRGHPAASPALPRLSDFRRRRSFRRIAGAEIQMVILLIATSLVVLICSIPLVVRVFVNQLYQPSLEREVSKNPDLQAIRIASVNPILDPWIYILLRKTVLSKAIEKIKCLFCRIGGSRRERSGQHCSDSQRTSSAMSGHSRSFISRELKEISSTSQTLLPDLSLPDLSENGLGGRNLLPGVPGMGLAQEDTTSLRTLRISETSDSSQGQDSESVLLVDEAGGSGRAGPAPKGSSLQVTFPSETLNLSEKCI
T2 sequence (P35408 whole entry): as above
T3 sequence (P43116 whole entry): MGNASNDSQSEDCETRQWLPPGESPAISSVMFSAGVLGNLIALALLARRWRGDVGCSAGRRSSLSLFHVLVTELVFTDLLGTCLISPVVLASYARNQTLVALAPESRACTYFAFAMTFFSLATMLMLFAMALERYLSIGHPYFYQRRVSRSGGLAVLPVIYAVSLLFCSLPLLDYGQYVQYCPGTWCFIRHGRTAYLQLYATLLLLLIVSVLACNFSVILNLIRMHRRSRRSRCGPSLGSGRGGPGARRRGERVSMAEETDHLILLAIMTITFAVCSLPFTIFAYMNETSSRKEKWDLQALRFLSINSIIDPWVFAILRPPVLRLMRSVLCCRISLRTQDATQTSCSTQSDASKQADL
T1 sequence (P43116 whole entry): as above

| SMILES | IC50 (PTGER2 (EP2)) | IC50 (PTGER4 (EP4)) | IC50 (EP2) | IC50 (EP4) |
| --- | --- | --- | --- | --- |
| CCOc1cc(-c2cc(NCCc3cccc4cnccc34)ncn2)sc1-c1noc(=O)[nH]1 [Example 144, 3-{3-Ethoxy-5-[6-(2-isoquinolin-5-yl-ethylamino)-pyrimidin-4-yl]-thiophen-2-yl}-[1,2,4]oxadiazol-5(4H)-one] | 30 nM | 20 nM | 71 nM | 40 nM |
| CCOc1cc(-c2cc(NCCc3cccc4c(C)c(C)n(C)c34)ncn2)sc1C(=O)O [Example 29, 3-Ethoxy-5-{6-[2-(1,2,3-trimethyl-1H-indol-7-yl)-ethylamino]-pyrimidin-4-yl}-thiophene-2-carboxylic acid] | 241 nM | 164 nM | 136 nM | 148 nM |
| CCCCOc1cc(-c2cc(NCCc3c(OC)ccc4ccccc34)ncn2)ccc1C(=O)O [Example 119, 2-Butoxy-4-{6-[2-(2-methoxy-naphthalen-1-yl)-ethylamino]-pyrimidin-4-yl}-benzoic acid] | 18 nM | 222 nM | 12 nM | 200 nM |
| CCOc1cc(-c2cc(NCCc3cccc4ccccc34)ncn2)ccc1C(=O)O [Example 6, 2-Ethoxy-4-[6-(2-naphthalen-1-yl-ethylamino)-pyrimidin-4-yl]-benzoic acid] | 85 nM | 1690 nM | 95 nM | 910 nM |
| CCOc1cc(-c2cc(NCCc3cccc4c(C)cccc34)ncn2)ccc1CC(=O)O [Example 164, (2-Ethoxy-4-{6-[2-(5-methyl-naphthalen-1-yl)-ethylamino]-pyrimidin-4-yl}-phenyl)-acetic acid] | 44 nM | 181 nM | 130 nM | 110 nM |
| COc1ccc2ccccc2c1CCNc1cc(-c2ccc(-c3cc(O)no3)cc2)ncn1 [Example 134, 5-(4-{6-[2-(2-Methoxy-naphthalen-1-yl)-ethylamino]-pyrimidin-4-yl}-phenyl)-isoxazol-3-ol] | 8 nM | 280 nM | 91 nM | 351 nM |
| CCOc1cc(-c2cc(NCCc3c(OC)ccc4ccccc34)ncn2)ccc1NC(=O)C(=O)O [Example 133, N-(2-Ethoxy-4-{6-[2-(2-methoxy-naphthalen-1-yl)-ethylamino]-pyrimidin-4-yl}-phenyl)-oxalamic acid] | 6 nM | 41 nM | 22 nM | 79 nM |
| CCOc1cc(-c2cc(NCCc3c(OC)ccc4ccccc34)ncn2)sc1CCC(=O)O [Example 131, 3-(3-Ethoxy-5-{6-[2-(2-methoxy-naphthalen-1-yl)-ethylamino]-pyrimidin-4-yl}-thiophen-2-yl)-propionic acid] | 54 nM | 88 nM | 73 nM | 157 nM |
| CCOc1cc(-c2cc(NCCc3cccc4c(F)cccc34)ncn2)ccc1CC(=O)O [Example 163, (2-Ethoxy-4-{6-[2-(5-fluoro-naphthalen-1-yl)-ethylamino]-pyrimidin-4-yl}-phenyl)-acetic acid] | 80 nM | 294 nM | 202 nM | 180 nM |
| COc1ccc2ccc(F)c(CCNc3cc(-c4cc(C(F)(F)F)c(C(=O)O)s4)ncn3)c2n1 [Example 151, 5-{6-[2-(7-Fluoro-2-methoxy-quinolin-8-yl)-ethylamino]-pyrimidin-4-yl}-3-trifluoromethyl-thiophene-2-carboxylic acid] | 414 nM | 478 nM | 214 nM | 228 nM |
| CCOc1cc(-c2cc(NCCc3cccc4cc(C)oc34)ncn2)sc1C(=O)O [Example 74, 3-Ethoxy-5-{6-[2-(2-methyl-benzofuran-7-yl)-ethylamino]-pyrimidin-4-yl}-thiophene-2-carboxylic acid] | 212 nM | 117 nM | 78 nM | 88 nM |
| CCOc1cc(-c2cc(NCCc3c(OC)ccc4cccnc34)ncn2)sc1C(=O)O [Example 33, 3-Ethoxy-5-{6-[2-(7-methoxy-quinolin-8-yl)-ethylamino]-pyrimidin-4-yl}-thiophene-2-carboxylic acid] | 56 nM | 252 nM | 78 nM | 223 nM |
| CCOc1cc(-c2cc(NCCc3cccc4cc[nH]c34)ncn2)sc1-c1noc(=O)[nH]1 [Example 143, 3-(3-Ethoxy-5-{6-[2-(1H-indol-7-yl)-ethylamino]-pyrimidin-4-yl}-thiophen-2-yl)-[1,2,4]oxadiazol-5(4H)-one] | 31 nM | 21 nM | 90 nM | 105 nM |
| CCOc1cc(-c2cc(NCCc3c(C)ccc4ncccc34)ncn2)sc1C(=O)O [Example 2, 3-Ethoxy-5-{6-[2-(6-methyl-quinolin-5-yl)-ethylamino]-pyrimidin-4-yl}-thiophene-2-carboxylic acid] | 27 nM | 311 nM | 47 nM | 100 nM |
| CCOc1cc(-c2cc(NCCc3c(C)c(C)cc4ccccc34)ncn2)sc1C(=O)O [Example 12, 5-{6-[2-(2,3-Dimethyl-naphthalen-1-yl)-ethylamino]-pyrimidin-4-yl}-3-ethoxy-thiophene-2-carboxylic acid] | 27 nM | 52 nM | 17 nM | 17 nM |
| CCOc1cc(-c2cc(NCCc3c(OCC)ccc4c3OCO4)ncn2)sc1C(=O)O [Example 45, 3-Ethoxy-5-{6-[2-(5-ethoxy-benzo[1,3]dioxol-4-yl)-ethylamino]-pyrimidin-4-yl}-thiophene-2-carboxylic acid] | 10 nM | 53 nM | 10 nM | 44 nM |
| COc1ccc2ccccc2c1CCNc1cc(-c2ccc(C(=O)O)c(OCCO)c2)ncn1 [Example 155, 2-(2-Hydroxy-ethoxy)-4-{6-[2-(2-methoxy-naphthalen-1-yl)-ethylamino]-pyrimidin-4-yl}-benzoic acid] | 45 nM | 2230 nM | 16 nM | 296 nM |
| CCOc1cc(-c2cc(NCCc3cccc4ccncc34)ncn2)sc1-c1noc(=O)[nH]1 [Example 139, 3-{3-Ethoxy-5-[6-(2-isoquinolin-8-yl-ethylamino)-pyrimidin-4-yl]-thiophen-2-yl}-[1,2,4]oxadiazol-5(4H)-one] | 186 nM | 48 nM | 526 nM | 28 nM |
| CCOc1cc(-c2cc(NCCc3c(OC)ccc4ccccc34)ncn2)sc1C(=O)NS(C)(=O)=O [Example 136, N-(3-Ethoxy-5-{6-[2-(2-methoxy-naphthalen-1-yl)-ethylamino]-pyrimidin-4-yl}-thiophene-2-carbonyl)-methanesulfonamide] | 3 nM | 24 nM | 10 nM | 86 nM |
| CCOc1cc(-c2cc(NCCc3c(OC)ccc4c3CCO4)ncn2)sc1C(=O)O [Example 34, 3-Ethoxy-5-{6-[2-(5-methoxy-2,3-dihydro-benzofuran-4-yl)-ethylamino]-pyrimidin-4-yl}-thiophene-2-carboxylic acid] | 39 nM | 114 nM | 64 nM | 152 nM |
| CCOc1cc(-c2cc(NCCc3ccc(C)c4ccccc34)ncn2)ccc1C(=O)O [Example 16, 2-Ethoxy-4-{6-[2-(4-methyl-naphthalen-1-yl)-ethylamino]-pyrimidin-4-yl}-benzoic acid] | 143 nM | 290 nM | 176 nM | 268 nM |
